Results on 25 compounds are retold here after patent US10590086B2, “Pharmaceutical compound” (IOmet Pharma Ltd., priority 2014, dated 2020).

Bounds are passed on as bounds.

The target of assay [1] is TDO (Homo sapiens, UniProt P48775). Put plainly: A172 kynurenine cell-based assay. Details: This assay utilised cancer cells which expressed either TDO or IDO; endogenous in cells; host or cells: A172 (human glioblastoma). The conditions noted are these: A172 human glioblastoma cells, 48 hours, 500 μM L-tryptophan; read-out: A172 Kynurenine cell based assay pIC50 (converted). Here is the method: (§1) Exemplary compounds of the invention were prepared, and tested to determine their effect as TDO and/or IDO inhibitors. Two different assays were employed: 1. a cell-based assay for detecting the effect of test compounds on kynurenine production in two different cancer cell types. This assay utilised cancer cells which expressed either TDO or IDO and as such was used as a means of testing compound activity at these two enzymes in a cell-based context. 2. a TDO and IDO biochemical coupled assay which utilised recombinantly produced and purified TDO and IDO enzymes in combination with the enzyme formamidase. This coupled enzyme system allowed conversion of N-formylkynurenine produced by TDO or IDO activity to kynurenine which was then quantified by fluorescence following addition of Erhlich's Reagent The protocols for these are set out below.
TDO, sequence (P48775 whole entry): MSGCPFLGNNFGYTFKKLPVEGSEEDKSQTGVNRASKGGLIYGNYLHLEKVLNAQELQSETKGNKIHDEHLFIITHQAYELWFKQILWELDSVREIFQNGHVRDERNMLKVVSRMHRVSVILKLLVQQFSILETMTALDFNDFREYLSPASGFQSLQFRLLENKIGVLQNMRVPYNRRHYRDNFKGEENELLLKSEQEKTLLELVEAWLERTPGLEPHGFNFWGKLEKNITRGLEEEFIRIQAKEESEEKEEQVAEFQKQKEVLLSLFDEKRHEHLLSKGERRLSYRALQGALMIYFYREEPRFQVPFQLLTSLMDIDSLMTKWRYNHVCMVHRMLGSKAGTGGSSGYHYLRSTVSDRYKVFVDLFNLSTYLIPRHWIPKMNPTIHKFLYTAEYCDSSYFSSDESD
(§2) Cell Based Assay for Detection of Kynurenine Produced by TDO and/or IDO
(§3) A172 (human glioblastoma) and SKOV3 (human ovarian adenocarcinoma) cells were seeded in a 96 well plate at 30,000 or 40,000 cells per well respectively in phenol red-free RPMI supplemented with 10% FCS, 2 mM L-glutamine and 500 μM L-tryptophan. IDO expression was induced in the SKOV3 cells by the addition of 500 ng/ml IFN-γ. Cells were incubated at 37° C. with or without the addition of test compound. After 48 hours, the cells were removed by centrifugation and Erhlich's reagent was added to the supernatant. The Erhlich's reagent was incubated for 5 minutes before the absorbance was read at 490 nm.

For assay [2], the target named is IDO (Homo sapiens, UniProt P14902). Put plainly: SKOV3 kynurenine cell-based assay (IDO induced by IFN-γ). The conditions noted are these: SKOV3 human ovarian adenocarcinoma cells, 500 ng/ml IFN-γ, 48 hours, 500 μM L-tryptophan; read-out: SKOV3 Kynurenine cell based assay pIC50 (converted). More on the design: IDO expression was induced in the SKOV3 cells by the addition of 500 ng/ml IFN-γ; endogenous in cells; host or cells: SKOV3 (human ovarian adenocarcinoma), induced with IFN-γ. The protocol: as §1, §2, §3
IDO, sequence (P14902 whole entry): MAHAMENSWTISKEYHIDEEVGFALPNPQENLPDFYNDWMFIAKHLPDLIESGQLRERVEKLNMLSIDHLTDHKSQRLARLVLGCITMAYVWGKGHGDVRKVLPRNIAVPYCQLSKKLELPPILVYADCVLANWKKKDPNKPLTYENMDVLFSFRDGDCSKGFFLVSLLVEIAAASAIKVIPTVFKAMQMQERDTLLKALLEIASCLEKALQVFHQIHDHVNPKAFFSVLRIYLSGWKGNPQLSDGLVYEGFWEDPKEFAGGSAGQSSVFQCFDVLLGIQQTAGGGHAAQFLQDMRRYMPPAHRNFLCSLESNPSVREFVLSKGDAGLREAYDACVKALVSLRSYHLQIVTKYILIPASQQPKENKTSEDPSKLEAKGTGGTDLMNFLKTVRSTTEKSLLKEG

For the compound `CS(=O)(=O)N1CCC(Oc2cc(Cl)cc3c2cnn3CCO)CC1` [Compound 163], the IC50 was > 100 µM in assay [1] and 32.4 to 100 µM in assay [2].
Regarding `CC1CN(c2cccc3[nH]ncc23)CCN1S(C)(=O)=O` (centres unmarked) [Compound 29], the results for the IC50 in assay [1] and in assay [2] were 3.24 to 31.6 µM and 32.4 to 100 µM, respectively.
For `C[C@@H]1CN(c2cc(Cl)cc3[nH]ncc23)C[C@H](C)N1S(C)(=O)=O` [Compound 134], the IC50 in assay [1] and in assay [2] was < 3.16 µM in each case.
In the case of `CC(=O)N1CCN(c2cc(Br)cc3[nH]ncc23)CC1(C)C` [Compound 90], the IC50 in assay [1] and in assay [2] was < 3.16 µM throughout.
As to `CC1(C)CC(c2cc(C(F)(F)F)cc3[nH]ncc23)CCN1S(C)(=O)=O` (centres unmarked) [Compound 154], the IC50 in assay [1] is < 3.16 µM; in assay [2], 3.24 to 31.6 µM.
The corresponding values for `CCC(=O)N1CCC(c2cc(Cl)cc3[nH]ncc23)CC1` [Compound 170] are < 3.16 µM and 3.24 to 31.6 µM.
In the case of `CS(=O)(=O)N1CCC(Oc2cccc3[nH]ncc23)CC1` [Compound 52], the IC50 in assay [1] is 3.24 to 31.6 µM; in assay [2], 32.4 to 100 µM.
The corresponding values for `CS(=O)(=O)N1CCCN(c2cc(Cl)cc3[nH]ncc23)CC1` [Compound 72] are < 3.16 µM and 3.24 to 31.6 µM.
The like results for `CC(C)S(=O)(=O)N1CCC(c2cc(Cl)cc3[nH]ncc23)CC1` [Compound 141] were, in that order, < 3.16 µM and 3.24 to 31.6 µM.
In the case of `CCc1cc(N2CCN(S(C)(=O)=O)C(C)(C)C2)c2cn[nH]c2c1` [Compound 161], the IC50 in assay [1] and in assay [2] was < 3.16 µM in each case.
Take `CS(=O)(=O)N1CC2CC1CN2c1cc(Cl)cc2[nH]ncc12` (centres unmarked) [Compound 202]: the IC50 in assay [1] is < 3.16 µM; in assay [2], 32.4 to 100 µM.
The corresponding values for `Cc1cc(N2CCN(S(C)(=O)=O)CC2)c2cn[nH]c2c1` [Compound 31] are < 3.16 µM and 32.4 to 100 µM.
Take `CC(C)(F)C(=O)N1CCN(c2cc(Cl)cc3[nH]ncc23)CC1` [Compound 118]: the IC50 is < 3.16 µM in assay [1] and 3.24 to 31.6 µM in assay [2].
On to `O=S(=O)(c1ccccc1)N1CCN(c2cc(Cl)cc3[nH]ncc23)CC1` [Compound 55], for which the IC50 is < 3.16 µM in assay [1] and 3.24 to 31.6 µM in assay [2].
The like results for `CN1CCN(c2cc(Cl)cc3[nH]ncc23)CC1(C)C` [Compound 164] were, in that order, < 3.16 µM and 32.4 to 100 µM.
Take `CS(=O)(=O)N1CCN(c2cc(Cl)cc3[nH]ncc23)CC12CC2` [Compound 94]: the IC50 in assay [1] is < 3.16 µM; in assay [2], 3.24 to 31.6 µM.
Take `Cn1ncc2c(N3CCN(S(C)(=O)=O)C(C)(C)C3)cc(Cl)cc21` [Compound 105]: the IC50 in assay [1] was > 100 µM; in assay [2] it was 32.4 to 100 µM.
`OC1CCCN(c2cc(Cl)cc3[nH]ncc23)C1` (centres unmarked) [Compound 125]: the values for the IC50 in assay [1] and in assay [2] were < 3.16 µM and 32.4 to 100 µM, respectively.
The corresponding values for `CN(CCNc1cccc2[nH]ncc12)S(C)(=O)=O` [Compound 62] are 32.4 to 100 µM and > 100 µM.
The like results for `CC(=O)N1CCC(Oc2cc(Cl)cc3[nH]ncc23)CC1` [Compound 160] were, in that order, < 3.16 µM and 3.24 to 31.6 µM.
As to `CC(=O)N1CCN(c2cc(C(F)(F)F)cc3[nH]ncc23)CC1(C)C` [Compound 79], the IC50 in assay [1] and in assay [2] was < 3.16 µM each time.
In the case of `CS(=O)(=O)N1CCC(c2cc(-c3ccccc3)cc3[nH]ncc23)CC1` [Compound 32], the IC50 in assay [1] is 3.24 to 31.6 µM; in assay [2], 32.4 to 100 µM.
As to `CC(=O)N1CCN(c2cc(Cl)cc3[nH]ncc23)CC1C` (centres unmarked) [Compound 74], the IC50 was < 3.16 µM in assay [1] and 3.24 to 31.6 µM in assay [2].
The corresponding values for `CN(C)C(=O)CN1CCN(c2cc(Cl)cc3[nH]ncc23)CC1` [Compound 65] are 3.24 to 31.6 µM and 32.4 to 100 µM.
The like results for `CS(=O)(=O)NC1CCC(c2cc(Cl)cc3[nH]ncc23)CC1` (centres unmarked) [Compound 203] were, in that order, < 3.16 µM and 3.24 to 31.6 µM.
